Experimental data from the supplement of paper PMC10627819.
≈ marks a conversion by molar mass, not a printed value.

Key:
S. aureus Newman [1] = assay: fitness (endpoint OD595 vs no drug) (fraction); higher = more growth
How it was run: (§1)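 Fitness was measured as bacterial growth in 384-well plates inoculated at OD595 0.01 (30 µl, or 55 µl for S. pneumoniae). Media were TSB, LB Lennox or CY, at 37 °C. OD595 was read every 30 min for 14 h and background-subtracted against the first reading. Fitness is OD595 at the transition into stationary phase divided by the robust mean of no-drug control wells, capped at 1.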

S. aureus DSM 20231 [2] = assay: as above
How it was run: as §1

S. pneumoniae D39V [3] = assay: as above
How it was run: as §1

B. subtilis 168 [4] = assay: as above
How it was run: as §1

S. aureus Newman [5] = assay: Bliss interaction score (quartile over a dose matrix) (fitness difference); higher = more antagonism (negative = synergy)
How it was run: (§2)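 Growth was read as OD595 when cultures entered stationary phase, and each value was divided by the plate's robust no-drug mean and capped at 1. This normalised ratio is the fitness value, and fitness for each single drug came from the combination data. The Bliss score subtracts the expected fitness, taken as the product, from the observed fitness and is given as quartiles across technical, biological and donor/recipient replicates.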

S. aureus DSM 20231 [6] = assay: as above
How it was run: as §2

S. pneumoniae D39V [7] = assay: as above
How it was run: as §2

B. subtilis 168 [8] = assay: as above
How it was run: as §2

S. aureus Newman [9] = tested on: S. aureus Newman
S. aureus DSM 20231 [10] = tested on: S. aureus DSM 20231
S. pneumoniae D39V [11] = tested on: S. pneumoniae D39V
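For Bliss interaction score (quartile over a dose matrix) in this document: first quartile when negative (synergy) and third quartile when positive (antagonism).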

CCCCCCCCCC(=O)N[C@@H](Cc1c[nH]c2ccccc12)C(=O)N[C@H](CC(N)=O)C(=O)N[C@@H](CC(=O)O)C(=O)N[C@@H]1C(=O)NCC(=O)N[C@@H](CCCN)C(=O)N[C@@H](CC(=O)O)C(=O)N[C@H](C)C(=O)N[C@@H](CC(=O)O)C(=O)NCC(=O)N[C@H](CO)C(=O)N[C@@H]([C@H](C)CC(=O)O)C(=O)N[C@@H](CC(=O)c2ccccc2N)C(=O)O[C@@H]1C [Daptomycin] + Cc1ncc([N+](=O)[O-])n1CCO [Metronidazole]
fitness
Conditions | partner 0.625 µg/mL | partner 1.073 µg/mL | partner 1.25 µg/mL | partner 2.145 µg/mL | partner 2.5 µg/mL | partner 4.29 µg/mL | partner 5 µg/mL
B. subtilis 168 [4], first compound 0.125 µg/mL | 0.942 | – | 0.892 | – | 0.93 | – | –
B. subtilis 168 [4], first compound 0.25 µg/mL | 0.899 | – | 0.966 | – | 0.944 | – | –
B. subtilis 168 [4], first compound 0.5 µg/mL | 0.935 | – | 0.904 | – | 0.874 | – | –
S. aureus DSM 20231 [2], first compound 0.125 µg/mL | 0.924 | – | ≥ 1 | – | 0.983 | – | –
S. aureus DSM 20231 [2], first compound 0.25 µg/mL | 0.932 | – | ≥ 1 | – | ≥ 1 | – | –
S. aureus DSM 20231 [2], first compound 0.5 µg/mL | ≥ 1 | – | ≥ 1 | – | ≥ 1 | – | –
S. aureus DSM 20231 [2], first compound 1 µg/mL | ≥ 1 | – | ≥ 1 | – | ≥ 1 | – | –
S. aureus DSM 20231 [2], first compound 2 µg/mL | ≥ 1 | – | ≥ 1 | – | ≥ 1 | – | –
S. aureus Newman [1], first compound 0.125 µg/mL | 0.935 | – | ≥ 1 | – | 0.982 | – | –
S. aureus Newman [1], first compound 0.25 µg/mL | 0.951 | – | ≥ 1 | – | 0.994 | – | –
S. aureus Newman [1], first compound 0.5 µg/mL | ≥ 1 | – | ≥ 1 | – | 0.975 | – | –
S. pneumoniae D39V [3], first compound 1 µg/mL | – | 0.846 | 0.977 | 0.786 | ≥ 1 | 0.777 | 0.993
S. pneumoniae D39V [3], first compound 2 µg/mL | – | 0.9 | 0.985 | 0.876 | ≥ 1 | 0.87 | ≥ 1
S. pneumoniae D39V [3], first compound 4 µg/mL | – | 0.949 | 0.93 | 0.888 | 0.97 | 0.928 | 0.976

fitness, one replicate
Conditions | partner 0.625 µg/mL | partner 0.781 µg/mL | partner 1.25 µg/mL | partner 1.562 µg/mL | partner 2.5 µg/mL | partner 3.124 µg/mL
B. subtilis 168 [4], first compound 1 µg/mL | 0.736 | – | 0.806 | – | 0.754 | –
S. aureus Newman [1], first compound 0.125 µg/mL | – | ≥ 1 | – | ≥ 1 | – | ≥ 1
S. aureus Newman [1], first compound 0.25 µg/mL | – | ≥ 1 | – | ≥ 1 | – | ≥ 1
S. aureus Newman [1], first compound 0.5 µg/mL | – | ≥ 1 | – | ≥ 1 | – | ≥ 1

Conditions | Bliss interaction score
B. subtilis 168 [8] | -0.0566
S. aureus DSM 20231 [6] | 0.0276
S. aureus Newman [5] | 0.0422
S. pneumoniae D39V [7] | 0.0723

CCCCCCCCCC(=O)N[C@@H](Cc1c[nH]c2ccccc12)C(=O)N[C@H](CC(N)=O)C(=O)N[C@@H](CC(=O)O)C(=O)N[C@@H]1C(=O)NCC(=O)N[C@@H](CCCN)C(=O)N[C@@H](CC(=O)O)C(=O)N[C@H](C)C(=O)N[C@@H](CC(=O)O)C(=O)NCC(=O)N[C@H](CO)C(=O)N[C@@H]([C@H](C)CC(=O)O)C(=O)N[C@@H](CC(=O)c2ccccc2N)C(=O)O[C@@H]1C [Daptomycin] + CN1C2=CC=CC=C2N=C3C1=CC=CC3=O [Pyocyanin]
fitness
Conditions | first compound 0.125 µg/mL | first compound 0.25 µg/mL | first compound 0.5 µg/mL | first compound 1 µg/mL | first compound 2 µg/mL | first compound 4 µg/mL
B. subtilis 168 [4], partner 1.25 µg/mL | 0.868 | 0.89 | 0.846 | – | – | –
B. subtilis 168 [4], partner 2.5 µg/mL | 0.846 | 0.817 | 0.803 | – | – | –
B. subtilis 168 [4], partner 5 µg/mL | 0.718 | 0.755 | 0.679 | – | – | –
S. aureus DSM 20231 [2], partner 1.25 µg/mL | – | – | 0.891 | 0.969 | 0.727 | –
S. aureus DSM 20231 [2], partner 2.5 µg/mL | – | – | 0.936 | 0.974 | 0.737 | –
S. aureus DSM 20231 [2], partner 5 µg/mL | – | – | 0.627 | 0.707 | 0.639 | –
S. aureus Newman [1], partner 1.25 µg/mL | 0.871 | 0.874 | 0.904 | – | – | –
S. aureus Newman [1], partner 2.5 µg/mL | 0.839 | 0.857 | 0.855 | – | – | –
S. pneumoniae D39V [3], partner 0.325 µg/mL | – | – | – | ≥ 1 | ≥ 1 | 0.994
S. pneumoniae D39V [3], partner 0.65 µg/mL | – | – | – | 0.905 | 0.944 | 0.931
S. pneumoniae D39V [3], partner 1.3 µg/mL | – | – | – | 0.615 | 0.604 | 0.582

fitness, one replicate
Conditions | partner 1.25 µg/mL | partner 2.5 µg/mL | partner 5 µg/mL
B. subtilis 168 [4], first compound 1 µg/mL | 0.697 | 0.652 | 0.552
S. aureus DSM 20231 [2], first compound 0.125 µg/mL | 0.798 | 0.814 | 0.577
S. aureus DSM 20231 [2], first compound 0.25 µg/mL | 0.86 | 0.938 | 0.581

Conditions | Bliss interaction score
B. subtilis 168 [8] | -0.0565
S. aureus DSM 20231 [6] | -0.0886
S. aureus Newman [5] | 0.0899
S. pneumoniae D39V [7] | -0.0802

CC1(C)S[C@@H]2[C@H](NC(=O)[C@H](N)c3ccc(O)cc3)C(=O)N2[C@H]1C(=O)O [Amoxicillin]
Conditions | MIC [µg/mL]
S. aureus DSM 20231 [10] | 0.556 (≈ 1.52 µM)
S. aureus Newman [9] | 0.25 (≈ 0.684 µM)
S. pneumoniae D39V [11] | 0.004 (≈ 0.0109 µM)

fitness
Conditions | 0.0008 µg/mL | 0.0015 µg/mL | 0.003 µg/mL | 0.0625 µg/mL | 0.125 µg/mL | 0.25 µg/mL | 0.5 µg/mL
S. aureus DSM 20231 [2] | – | – | – | 0.606 | 0.504 | 0.0502 | 0.0082
S. aureus Newman [1] | – | – | – | 0.896 | 0.878 | 0.85 | 0.865
S. pneumoniae D39V [3] | 0.972 | 0.945 | 0.923 | – | – | – | –

CCN(CC)CCOC(=O)c1ccc(N)cc1 [Procaine] + Cc1cc(NS(=O)(=O)c2ccc(N)cc2)no1 [Sulfamethoxazol]
fitness
Conditions | B. subtilis 168 [4] | S. aureus DSM 20231 [2] | S. aureus Newman [1] | S. pneumoniae D39V [3]
first compound 85.5 µg/mL, partner 1 µg/mL | 0.909 | 0.976 | 0.999 | 0.991
first compound 85.5 µg/mL, partner 2 µg/mL | 0.88 | 0.979 | 0.984 | 0.982
first compound 85.5 µg/mL, partner 4 µg/mL | 0.905 | 0.999 | 0.959 | 0.924
first compound 171 µg/mL, partner 1 µg/mL | 0.865 | 0.992 | 0.99 | 0.979
first compound 171 µg/mL, partner 2 µg/mL | 0.836 | ≥ 1 | 0.981 | ≥ 1
first compound 171 µg/mL, partner 4 µg/mL | 0.936 | ≥ 1 | 0.937 | 0.923
first compound 342 µg/mL, partner 1 µg/mL | 0.88 | 0.944 | – | 0.979
first compound 342 µg/mL, partner 2 µg/mL | 0.78 | ≥ 1 | – | 0.974
first compound 342 µg/mL, partner 4 µg/mL | 0.918 | ≥ 1 | – | 0.908

fitness, one replicate
Conditions | first compound 85.5 µg/mL | first compound 171 µg/mL | first compound 342 µg/mL
B. subtilis 168 [4], partner 0.5 µg/mL | 0.971 | 0.908 | 0.963
S. aureus Newman [1], partner 8 µg/mL | 0.88 | 0.892 | 0.934

Conditions | Bliss interaction score
B. subtilis 168 [8] | -0.0492
S. aureus DSM 20231 [6] | 0.0626
S. aureus Newman [5] | 0.0323
S. pneumoniae D39V [7] | 0.0407
